What was measured:
Test in all cases: MIC determination (EUCAST / ISO 20776 microdilution)
Type in all cases: cell-based
[1] = test system: Lactobacillus gasseri LF7
Description: (§1) Sequential dilutions (1:2) were prepared in a sterile 96 wells plate with culture medium. All preparations were performed in aseptic conditions. For each of the ingredients tested, 8 concentrations were tested. […] De Man, Rogosa and Sharpe Broth (MRSB) media was used for growth of Lactobacillus spp., New York City III Broth ([…]) media and Roswell Park Memorial Institute 1640 (RPMI-1640) media was used respectively to grow Gardnerella vaginalis and Candida albicans. […] After homogenization of the working microbial suspension with dilutions of the two ingredients, the 96-well plates were incubated according to the incubation conditions suitable for each microorganism. For, L. crispatus and L. gasseri, incubation was done at 37° C. for 24 and 48h in microaerophilic atmosphere. […] After incubation, the wells were evaluated macroscopically to check for microorganism growth. Turbid wells indicated the presence of microbial growth, and clear wells indicated the absence of microbial growth. The lowest concentration tested in which wells without turbidity, correspondent to the minimum inhibitory concentration (MIC). To validate the test, three negative controls (sterility control of the culture medium; study substance dilutions with culture medium; emulsifier with culture medium) and two positive controls (growth control for each microorganism using culture media and growth control for each microorganism using emulsifier with culture media) were performed.

[2] = test system: Lactobacillus crispatus LF6
Description: as §1

Candida albicans LF1 = test system: Candida albicans LF1
Description: as §1

[3] = test system: Gardnerella vaginalis LF1; settings: clinical vaginal isolate; 37° C., microaerophilic, 24 and 48 h; single substance
Excerpt: The strains used were Lactobacillus crispatus LF6 and Lactobacillus gasseri LF7), one strain of Gardnerella vaginalis LF1 and one strain of Candida albicans LF, that correspond to clinical isolates collected from women vaginal cavity. The antimicrobial activity method was based on the current standards described by EUCAST (European Committee on Antimicrobial Susceptibility Testing) and ISO 20776-1 (2006) and ISO 20776-2-(2007) for determining the minimum inhibitory concentration (MIC). Terpinen-4-ol and Carvacrol were emulsified with DMSO (up to 1% (v/v)) in culture medium to obtain a concentration corresponding to 2× higher than the testing one. Sequential dilutions (1:2) were prepared in a sterile 96 wells plate with culture medium. […]
In parallel, calibrated suspensions of microorganisms were prepared with a cell density of 1.0 on the McFarland scale (Lactobacillus spp. and Candida albicans) and 0.13 absorbance (Gardnerella vaginalis), corresponding to 1×10^8 CFU/mL for bacteria (Lactobacillus spp. and Gardnerella vaginalis) and 1×10^6 CFU/mL for yeast (Candida albicans). […]
After homogenization of the working microbial suspension with dilutions of the two ingredients, the 96-well plates were incubated according to the incubation conditions suitable for each microorganism. […] After incubation, the wells were evaluated macroscopically to check for microorganism growth. […]

[4] = terpinen-4-ol 2.5 μl/ml and 5 μl/ml

| SMILES | effect on Lactobacillus gasseri growth ([1]; carvacrol 0.31 μl/ml) | effect on Lactobacillus crispatus growth ([2]; carvacrol 0.31 μl/ml) | inhibition for C. albicans LF1 (Candida albicans LF1; carvacrol 0.31 μl/ml) [%] | MIC for Gardenella vaginalis LF1 [3] [μl/ml] | effect on Lactobacillus gasseri growth [1, 4] | effect on Lactobacillus crispatus growth [2, 4] | MIC for C. albicans LF1 (Candida albicans LF1; clinical vaginal isolate, 32.5° C., aerophilic, 24 and 48 h, single substance) [μl/ml] |
| --- | --- | --- | --- | --- | --- | --- | --- |
| Cc1ccc(C(C)C)cc1O [Carvacrol, carvacrol] | unaffected | unaffected | 50 | 0.31 |  |  |  |
| CC1=CCC(O)(C(C)C)CC1 (centres unmarked) [Terpinen-4-ol] |  |  |  | 2.5 | unaffected | unaffected | 5 |
